Results on 3 compounds are retold here after PubChem BioAssay AID1259407 (Chemical Carcinogenesis Research Information System (CCRIS), 2018).

The source made the active and inactive calls. How the calls were made is not given here.

This data set has as its system CCRIS mutagenicity, Ames/micronucleus/aberration tests. The data set can be described thus: CCRIS mutagenicity studies.
Where [1] appears, read: Test System: AMES SALMONELLA TYPHIMURIUM, Strain/Indicator: TA100, Metabolic Activation: NONE, Method: PREINCUBATION
The mark [2] stands for this setting: Test System: AMES SALMONELLA TYPHIMURIUM, Strain/Indicator: TA104, Metabolic Activation: NONE, Method: PREINCUBATION
Setting [3] is: Test System: AMES SALMONELLA TYPHIMURIUM, Strain/Indicator: TA100, Metabolic Activation: NONE, Method: STANDARD PLATE.

In the case of `CCCC=O`, the mutagenic call was “inactive; negative” (End Point: IN VITRO CHROMOSOMAL ABERRATIONS, Test System: CHINESE HAMSTER OVARY CELLS, Metabolic Activation: NONE); “inactive; negative” (End Point: IN VITRO CHROMOSOMAL ABERRATIONS, Test System: CHINESE HAMSTER OVARY CELLS, Metabolic Activation: RAT, LIVER, S-9, AROCLOR 1254); “active; positive (structural changes). ploidy not dose related” (End Point: In vitro chromosomal aberrations, Test System: Chinese hamster lung (CHL/IU) cells, Metabolic Activation: Rat, Liver, S9, Phenobarbital and 5,6-benzoflavone); “inactive; negative” under setting [1]; “inactive; negative” (Test System: AMES SALMONELLA TYPHIMURIUM, Strain/Indicator: TA100, Metabolic Activation: RAT LIVER S-9, AROCLOR 1254, Method: PREINCUBATION); “inactive; negative” (Test System: AMES SALMONELLA TYPHIMURIUM, Strain/Indicator: TA102, Metabolic Activation: NONE, Method: PREINCUBATION). Also, the mutagenic call is, setting by setting: (Test System: AMES SALMONELLA TYPHIMURIUM, Strain/Indicator: TA102, Metabolic Activation: RAT LIVER S-9, AROCLOR 1254, Method: PREINCUBATION) “inactive; negative”; under setting [2], “inactive; negative”; (Test System: AMES SALMONELLA TYPHIMURIUM, Strain/Indicator: TA104, Metabolic Activation: RAT LIVER S-9, AROCLOR 1254, Method: PREINCUBATION) “inactive; negative”; (Test System: CHINESE HAMSTER V-79, Strain/Indicator: V-79/6-THIOGUANINE (HGPRT), Metabolic Activation: NONE, Method: REPLATING) “active; positive”; (Test System: CHINESE HAMSTER V-79, Strain/Indicator: V-79/OUABAIN (NA/K), Metabolic Activation: NONE, Method: REPLATING) “active; positive”; (Test System: UDS HUMAN HEPATOCYTES, Strain/Indicator: THY INCORP, Metabolic Activation: NONE, Method: AUTORADIOGRAPHY) “inactive; negative”. Further, the mutagenic call (Test System: UDS RAT HEPATOCYTES, Strain/Indicator: THY INCORP, Metabolic Activation: NONE, Method: AUTORADIOGRAPHY) was “active; positive”.
Consider `O=C(Cl)c1ccccc1`, for which the mutagenic call by setting is: (Test System: AMES SALMONELLA TYPHIMURIUM, Strain/Indicator: TA98, Metabolic Activation: NONE, Method: 0-1000 UG/PLATE) “active; positive”; (Test System: AMES SALMONELLA TYPHIMURIUM, Strain/Indicator: TA98, Metabolic Activation: RAT LIVER S-9, PCB, Method: PREINCUBATION) “active; positive”; under setting [1], “active; positive”; under setting [3], “active; positive”; (Test System: AMES SALMONELLA TYPHIMURIUM, Strain/Indicator: TA100, Metabolic Activation: RAT LIVER S-9, PCB, Method: PREINCUBATION) “active; positive”; under setting [2], “active; positive”. Besides, the mutagenic call was “active; positive” (Test System: AMES SALMONELLA TYPHIMURIUM, Strain/Indicator: TA104, Metabolic Activation: RAT LIVER S-9, PCB, Method: PREINCUBATION); “active; positive” (Test System: E.COLI, Strain/Indicator: WP2 UVRA, Metabolic Activation: NONE, Method: PREINCUBATION); “active; positive” (Test System: E.COLI, Strain/Indicator: WP2 UVRA, Metabolic Activation: RAT LIVER S-9, PCB, Method: PREINCUBATION).
With `O=C(O)CCC(=O)N(O)c1ccc(Cl)cc1`, the mutagenic call runs as follows: (Test System: AMES SALMONELLA TYPHIMURIUM, Strain/Indicator: TA98, Metabolic Activation: NONE, Method: STANDARD PLATE) “inactive; negative”; (Test System: AMES SALMONELLA TYPHIMURIUM, Strain/Indicator: TA98, Metabolic Activation: RAT, LIVER, S-9, AROCLOR 1254, Method: STANDARD PLATE) “active; positive”; under setting [3], “inactive; negative”; (Test System: AMES SALMONELLA TYPHIMURIUM, Strain/Indicator: TA100, Metabolic Activation: RAT, LIVER, S-9, AROCLOR 1254, Method: STANDARD PLATE) “active; positive”.
